Consider 7 molecules from ChEMBL document CHEMBL3044621, “1-(7-Chloroquinolin-4-yl)-2-[(1H-pyrrol-2-yl)methylene]hydrazine: a potent compound against cancer” (Med Chem Res, 2012).

Assay [1] deals with HCT-8. In words: Cytotoxicity against Homo sapiens (human) HCT8 cells after 72 hr by MTT assay. It is filed as functional, cell-based. Conditions: HCT-8, 72 h. On the technique in general: Tetrazolium assays rely on reduction of a dye to a coloured formazan, in cell work by metabolically active cells.
Assay [2] deals with SF-295. In words: Cytotoxicity against Homo sapiens (human) SF295 cells assessed as growth inhibition at 25 ug/ml after 72 hr by MTT assay. It is filed as functional. Conditions: SF-295, 72 h, read-out: GI.
Assay [3] has as its system HL-60. The assay is described as follows: Cytotoxicity against Homo sapiens (human) HL60 cells after 72 hr by MTT assay. It counts as functional, cell-based. Conditions: HL-60, 72 h.
Assay [4] relates to HCT-8. The assay is described as follows: Cytotoxicity against Homo sapiens (human) HCT8 cells assessed as growth inhibition at 25 ug/ml after 72 hr by MTT assay. The conditions noted are these: HCT-8, 72 h, read-out: GI. It counts as functional.
Assay [5] deals with MDA-MB-435. In words: Cytotoxicity against Homo sapiens (human) MDA-MB-435 cells assessed as growth inhibition at 25 ug/ml after 72 hr by MTT assay. It counts as functional. Conditions: MDA-MB-435, 72 h, read-out: GI.
Assay [6] has as its system MDA-MB-435. In words: Cytotoxicity against Homo sapiens (human) MDA-MB-435 cells after 72 hr by MTT assay. Conditions: MDA-MB-435, 72 h. It is filed as functional, cell-based.
The subject of assay [7] is SF-295. In words: Cytotoxicity against Homo sapiens (human) SF295 cells after 72 hr by MTT assay. It is filed as functional, cell-based. The conditions noted are these: SF-295, 72 h.
Assay [8] relates to MDA-MB-435. The assay is described as follows: Ratio of doxorubicin IC50 to compound IC50 for Homo sapiens (human) MDA-MB-435 cells. It is filed as functional.

In brackets after ≈: the same amount, converted by molar mass.

The term IC50 denotes the concentration that inhibits the measured activity by half. High values mean weaker potency, low ones greater potency.

With `Clc1ccc2c(N/N=C/c3ccc[nH]3)ccnc2c1`, the IC50 in assay [1] was determined as 0.441 µg/mL (≈ 1.63 µM); in assay [3] it was 0.0952 µg/mL (≈ 0.352 µM); in assay [6] it was 0.117 µg/mL (≈ 0.431 µM); in assay [7], 0.527 µg/mL (≈ 1.95 µM). Further, the inhibition of growth at 25 µg/mL in assay [2], in assay [4] and in assay [5] was 100% each time. Also, the “Ratio IC50” value in assay [8] came to 4.

As for `O=[N+]([O-])c1ccc(/C=N/Nc2ccnc3cc(Cl)ccc23)o1`, the inhibition of growth at 25 µg/mL was found to be 7.53% in assay [2], 24.1% in assay [4] and 38% in assay [5].

As to `O=[N+]([O-])c1ccc(/C=N/Nc2ccnc3cc(Cl)ccc23)s1`, the inhibition of growth at 25 µg/mL in assay [2] was 33.4%; in assay [4], 49%; in assay [5], 42.1%.

Consider `Clc1ccc2c(N/N=C/c3ccco3)ccnc2c1`, for which the inhibition of growth at 25 µg/mL came to 61.9% in assay [2], 53.2% in assay [4] and 68.5% in assay [5].

On to `Clc1ccc2c(N/N=C/c3cccs3)ccnc2c1`, for which the inhibition of growth at 25 µg/mL in assay [2] was found to be 1.03%; in assay [4] it was 21.1%; in assay [5], 21.6%.

`Clc1ccc2c(N/N=C/c3ncc[nH]3)ccnc2c1`: the inhibition of growth at 25 µg/mL was 30.2% in assay [2], 34% in assay [4] and 82.6% in assay [5].

Molecule `COc1cccc2c1C(=O)c1c(O)c3c(c(O)c1C2=O)C[C@@](O)(C(=O)CO)C[C@@H]3O[C@H]1C[C@H](N)[C@H](O)[C@H](C)O1` [DOXORUBICIN] yielded an IC50 in assay [1] of 0.01 µg/mL (≈ 0.0184 µM).
